Experimental findings from patent US11219618B2, “Pyridylpyridone compounds” (Sprint Bioscience AB, priority 2017, dated 2022) are described below.

Structures are written as SMILES.

Assay [1] has as its system autophagy in HOS cells (GFP-LC3). Nature of the assay: High content screening autophagy assay (GFP-LC3 foci). Format: cell-based. The following applies: Homo sapiens; HOS cells expressing GFP-LC3; autophagy activated with KU-0063794 500 nM plus Bafilomycin A1 5 nM; 6 hours; foci area per cell; read-out: Median IC50 (μM) Cellular assay. The method, then: Human osteosarcoma cells (HOS) stably expressing a Green Fluorescent Protein (GFP) tagged LC3 (GFP-LC3) were used to determine the inhibitory effect on autophagy of proprietary compounds. For that purpose, autophagy was activated by using the mTOR inhibitor KU-0063794 at 500 nM in the presence of Bafilomycin A1 (Sigma-Aldrich) at 5 nM. Shortly, cells were plated overnight in clear bottom 96-well plates in DMEM—High Modified media (Hi-Clone Cat #SH30285.01). At the start of the experiment, the media was removed and replaced with fresh media containing the mTOR inhibitor, Bafilomycin A1 and the vehicle or a test compound as indicated. After 6 hours the media was removed, cells were washed twice with ice-cold phosphate buffered saline (PBS) and fixed with 4% paraformaldehyde for 20 minutes at room temperature. Then the cells were washed twice with ice-cold PBS before adding Hoechst 33342 at 1 μg/ml in PBS for nuclear staining. After incubation overnight at 4° C., cells were washed once with PBS to remove the excess of dye and 100 μl of PBS was added to each well. Images were acquired at 20× magnification, 6 images per well, using the ImageXpress automated microscope (Molecular Devices Inc.) and analyzed with MetaXpress software to identify LC3-GFP foci. Foci area per cell values were used to generate dose response curves and […] were calculated using the non-linear fitting analysis in GraphPad Prism software.
The results of the assay are shown in Table 2 (Median IC50 μM HOS-LC3).

For a further assay, the target named is Vps34 enzyme (Homo sapiens (Human), UniProt Q8NEB9). Nature of the assay: Vps34 biochemical assay (Adapta kinase assay). Conditions: 20 μM ATP and 200 μM PI:PS in substrate mix, 1 h at room temperature, TR-FRET, read-out: Median IC50 nM Adapta. The method, then: Dilution series of compounds of the invention were prepared in DMSO at 100 times the final assay concentration (n1=n0/3 in 10 points). The compounds were further diluted to 4 times the assay concentration in assay buffer (Life technologies buffer Q, PV5125, diluted 5 times supplemented with 2 mM DTT and 2 mM MnCl2). 2.5 μl of the diluted compounds were added to a 384 well assay plate followed by 2.5 μl of 16.5 nM Vps34 enzyme (Life technologies, PV5126). Enzyme and compounds were pre-incubated at rt for 15 min. Then 5 μl of substrate mix containing 20 μM ATP (Life technologies, PV3227) and 200 μM PI:PS substrate (Life technologies, PV5122) in assay buffer was added to the wells containing compound and enzyme. Mixing was performed by pipetting several times. The reaction was incubated at room temperature for 1 h. Then 5 μl stop-detection mix, prepared as described in the Adapta kinase assay kit instructions (Life technologies, PV5099) containing Adapta Eu-anti-ADP antibody (2.3 nM), Alexa Fluor 647 ADP tracer (9 nM) and EDTA (30 mM) in TR-FRET buffer, was added to quench the reaction. Mixing was performed by pipetting several times. The assay plate was then incubated at room temperature for 30 min and read with Artemis micro plate reader. Percent inhibition of the compounds as compared to DMSO treated control samples was calculated. By the use of Dotmatics software compound concentration versus percent inhibition was fitted to generate IC50 values.
Chain of Vps34 enzyme (Q8NEB9 whole entry): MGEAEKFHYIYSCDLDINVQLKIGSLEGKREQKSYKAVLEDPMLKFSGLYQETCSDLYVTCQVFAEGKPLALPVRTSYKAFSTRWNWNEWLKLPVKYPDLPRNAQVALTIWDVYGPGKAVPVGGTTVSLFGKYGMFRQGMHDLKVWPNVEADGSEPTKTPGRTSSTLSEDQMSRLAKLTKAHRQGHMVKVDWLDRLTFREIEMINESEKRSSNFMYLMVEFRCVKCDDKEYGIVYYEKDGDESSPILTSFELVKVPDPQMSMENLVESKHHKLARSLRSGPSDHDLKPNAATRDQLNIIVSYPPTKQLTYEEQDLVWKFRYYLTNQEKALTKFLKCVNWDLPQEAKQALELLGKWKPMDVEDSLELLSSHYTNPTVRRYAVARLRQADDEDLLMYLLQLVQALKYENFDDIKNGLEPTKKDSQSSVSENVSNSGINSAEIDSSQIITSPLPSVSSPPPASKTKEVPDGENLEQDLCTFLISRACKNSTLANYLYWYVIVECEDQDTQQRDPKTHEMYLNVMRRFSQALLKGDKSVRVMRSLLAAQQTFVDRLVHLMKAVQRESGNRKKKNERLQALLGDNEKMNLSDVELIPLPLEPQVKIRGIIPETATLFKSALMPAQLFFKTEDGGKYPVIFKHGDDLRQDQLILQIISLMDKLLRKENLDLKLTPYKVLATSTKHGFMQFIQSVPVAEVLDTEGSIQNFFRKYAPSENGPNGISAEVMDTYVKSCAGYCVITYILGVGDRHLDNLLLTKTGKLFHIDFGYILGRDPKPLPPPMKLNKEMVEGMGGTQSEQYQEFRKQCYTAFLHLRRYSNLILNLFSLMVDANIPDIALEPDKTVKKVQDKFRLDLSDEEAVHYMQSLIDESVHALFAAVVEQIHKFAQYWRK

Turning to `CC(=O)Nc1cc(-c2cc(-c3ccccc3Cl)[nH]c(=O)c2)ccn1` [Example 1, N-[4-[2-(2-chlorophenyl)-6-oxo-1H-pyridin-4-yl]-2-pyridyl]acetamide], the IC50 in assay [1] came to 0.026 µM.
For the compound `Nc1cc(-c2cc(-c3cccnc3)[nH]c(=O)c2)ccn1` [Example 5, 4-(2-Amino-4-pyridyl)-6-(3-pyridyl)-1H-pyridin-2-one], at Vps34 enzyme, the IC50 was determined as 410 nM.
For `Nc1cc(-c2cc(-c3ccccc3Cl)[nH]c(=O)c2)ccn1` [Example 11, 4-(2-Amino-4-pyridyl)-6-(2-chlorophenyl)-1H-pyridin-2-one], the IC50 in assay [1] came out at 0.742 µM; at Vps34 enzyme it was 45 nM.
In the same order, the values of `COCC(=O)Nc1cc(-c2cc(-c3ccccc3Cl)[nH]c(=O)c2)ccn1` [Example 12, N-[4-[2-(2-chlorophenyl)-6-oxo-1H-pyridin-4-yl]-2-pyridyl]-2-methoxy-acetamide] are 0.147 µM and 7 nM.
On the same counts, the results for `CC(=O)Nc1cc(-c2cc(N3CCCCC3C(F)(F)F)[nH]c(=O)c2)ccn1` (stereo not drawn) [Example 19, N-[4-[2-oxo-6-[2-(trifluoromethyl)-1-piperidyl]-1H-pyridin-4-yl]-2-pyridyl]acetamide] are 0.067 µM and 12 nM.
In the same order, the values of `O=C(Nc1cc(-c2cc(N3CCCCC3C(F)(F)F)[nH]c(=O)c2)ccn1)C1CC1` (stereo not drawn) [Example 21, N-[4-[2-oxo-6-[2-(trifluoromethyl)-1-piperidyl]-1H-pyridin-4-yl]-2-pyridyl]cyclopropanecarboxamide] are 0.016 µM and below 5 nM.
Take `CC(=O)Nc1cc(-c2cc(N3CCOCC3C(F)(F)F)[nH]c(=O)c2)ccn1` (stereo not drawn) [Example 26, N-[4-[2-oxo-6-[3-(trifluoromethyl)morpholin-4-yl]-1H-pyridin-4-yl]-2-pyridyl]acetamide]: the 50% inhibitory concentration (IC50) in assay [1] is 0.113 µM; on Vps34 enzyme, below 5 nM.
In the same order, the values of `CCS(=O)(=O)N1CCN(c2cc(-c3ccnc(NC(C)=O)c3)cc(=O)[nH]2)C(C(F)(F)F)C1` (stereo not drawn) [Example 30, N-[4-[2-[4-ethylsulfonyl-2-(trifluoromethyl)piperazin-1-yl]-6-oxo-1H-pyridin-4-yl]-2-pyridyl]acetamide] are 0.02 µM and below 5 nM.
Take `CC(=O)Nc1cc(-c2cc(N3CCOCC3C3CC3)[nH]c(=O)c2)ccn1` (stereo not drawn) [Example 32, N-[4-[2-(3-cyclopropylmorpholin-4-yl)-6-oxo-1H-pyridin-4-yl]-2-pyridyl]acetamide]: the half-maximal inhibitory concentration (IC50) at Vps34 enzyme came out at 5 nM.
Regarding `CC(=O)Nc1cc(-c2cc(-c3ccccc3C(F)(F)F)[nH]c(=O)c2)ccn1` [Example 34, N-[4-[2-oxo-6-[2-(trifluoromethyl)phenyl]-1H-pyridin-4-yl]-2-pyridyl]acetamide], the figures for the IC50 (in assay [1]; at Vps34 enzyme) were 0.063 µM and below 5 nM, respectively.
Turning to `CC(=O)Nc1cc(-c2cc(-c3cccnc3C(F)(F)F)[nH]c(=O)c2)ccn1` [Example 36, N-[4-[2-oxo-6-[2-(trifluoromethyl)-3-pyridyl]-1H-pyridin-4-yl]-2-pyridyl]acetamide], the half-maximal inhibitory concentration (IC50) in assay [1] was 0.092 µM; at Vps34 enzyme, below 5 nM.
For the compound `CC(=O)Nc1cc(-c2cc(-c3cccnc3C)[nH]c(=O)c2)ccn1` [Example 38, N-[4-[2-(2-methyl-3-pyridyl)-6-oxo-1H-pyridin-4-yl]-2-pyridyl]acetamide], the concentration for half-maximal inhibition (IC50) at Vps34 enzyme is below 5 nM.
Still for that read-out and setting: with `CC(=O)Nc1cc(-c2cc(-c3cnccc3C)[nH]c(=O)c2)ccn1` [Example 40, N-[4-[2-(4-methyl-3-pyridyl)-6-oxo-1H-pyridin-4-yl]-2-pyridyl]acetamide] the figure was below 5 nM.
Consider `CC(=O)Nc1cc(-c2cc(-c3cscc3C(F)(F)F)[nH]c(=O)c2)ccn1` [Example 42, N-[4-[2-oxo-6-[4-(trifluoromethyl)-3-thienyl]-1H-pyridin-4-yl]-2-pyridyl]acetamide], for which the IC50 in assay [1] is 0.046 µM; on Vps34 enzyme it was below 5 nM.
On the same counts, the results for `CCn1cc(-c2cc(-c3ccnc(NC(C)=O)c3)cc(=O)[nH]2)c(C(F)(F)F)n1` [Example 44, N-[4-[2-[1-ethyl-3-(trifluoromethyl)pyrazol-4-yl]-6-oxo-1H-pyridin-4-yl]-2-pyridyl]acetamide] are 0.138 µM and below 5 nM.
In the same order, the values of `COC(=O)Nc1cc(-c2cc(N3CCOCC3C(F)(F)F)[nH]c(=O)c2)ccn1` (stereo not drawn) [Example 45, Methyl N-[4-[2-oxo-6-[3-(trifluoromethyl)morpholin-4-yl]-1H-pyridin-4-yl]-2-pyridyl]carbamate] are 0.023 µM and below 5 nM.
Take `COC(=O)Nc1cc(-c2cc(-c3ccccc3C(F)(F)F)[nH]c(=O)c2)ccn1` [Example 48, Methyl N-[4-[2-oxo-6-[2-(trifluoromethyl)phenyl]-1H-pyridin-4-yl]-2-pyridyl]carbamate]: the 50% inhibitory concentration (IC50) was 0.02 µM in assay [1] and below 5 nM on Vps34 enzyme.
In the same order, the values of `COC(=O)Nc1cc(-c2cc(-c3ccccc3Cl)[nH]c(=O)c2)ccn1` [Example 50, Methyl N-[4-[2-(2-chlorophenyl)-6-oxo-1H-pyridin-4-yl]-2-pyridyl]carbamate] are 0.029 µM and below 5 nM.
In the same order, the values of `COC(=O)Nc1cc(-c2cc(-c3cccnc3C(F)(F)F)[nH]c(=O)c2)ccn1` [Example 52, Methyl N-[4-[2-oxo-6-[2-(trifluoromethyl)-3-pyridyl]-1H-pyridin-4-yl]-2-pyridyl]carbamate] are 0.022 µM and below 5 nM.
In the same order, the values of `CCn1cc(-c2cc(-c3ccnc(NC(=O)OC)c3)cc(=O)[nH]2)c(C(F)(F)F)n1` [Example 54, Methyl N-[4-[2-[1-ethyl-3-(trifluoromethyl)pyrazol-4-yl]-6-oxo-1H-pyridin-4-yl]-2-pyridyl]carbamate] are 0.105 µM and below 5 nM.
On to `CN(C)C(=O)Nc1cc(-c2cc(-c3ccccc3C(F)(F)F)[nH]c(=O)c2)ccn1` [Example 62, 1,1-Dimethyl-3-[4-[2-oxo-6-[2-(trifluoromethyl)phenyl]-1H-pyridin-4-yl]-2-pyridyl]urea], for which the IC50 at Vps34 enzyme turned out to be 50 nM.
Same read-out and setting: the same measure for `O=C(Nc1cc(-c2cc(-c3ccccc3C(F)(F)F)[nH]c(=O)c2)ccn1)N1CCCC1` [Example 66, N-[4-[2-oxo-6-[2-(trifluoromethyl)phenyl]-1H-pyridin-4-yl]-2-pyridyl]pyrrolidine-1-carboxamide]: 147 nM.
Same read-out and setting: the same measure for `COC(C)(C)C1CCCN1c1cc(-c2ccnc(NC(C)=O)c2)cc(=O)[nH]1` (stereo not drawn) [Example 68, N-[4-[2-[2-(1-methoxy-1-methyl-ethyl)pyrrolidin-1-yl]-6-oxo-1H-pyridin-4-yl]-2-pyridyl]acetamide]: 26 nM.
The same measure, in the same setting: with `COC(=O)Nc1cc(-c2cc(N3CCCCC3C(F)(F)F)[nH]c(=O)c2)ccn1` (stereo not drawn) [Example 70, Methyl N-[4-[2-oxo-6-[2-(trifluoromethyl)-1-piperidyl]-1H-pyridin-4-yl]-2-pyridyl]carbamate] the figure was below 5 nM.

One may read the IC50 as the concentration that inhibits the measured activity by half.
